Experimental data published in the NIST ThermoML archive (doi:10.1021/je400250u).
Numbers after ± are expanded uncertainties.

assay: xn = mol fraction of the nth substance listed; details: 318.15 K; 100 kPa; Liquid; Capillary tube (Ostwald / Ubbelohde) method; x2 = 0

Structure (SMILES)	viscosity [mPa·s]
CCCCCCCCCC [decane] + C1CC[C@H]2CCCC[C@@H]2C1	0.667 ± 0.011
CCCCCCCCCC [decane] + C1CC[C@H]2CCCC[C@H]2C1	0.667 ± 0.011
CCCCCCCCC [nonane] + C1CC[C@H]2CCCC[C@@H]2C1	0.547 ± 0.011
CCCCCCCCC [nonane] + C1CC[C@H]2CCCC[C@H]2C1	0.547 ± 0.011
CCCCCCCCCCC [undecane] + C1CC[C@H]2CCCC[C@@H]2C1	0.801 ± 0.012
CCCCCCCCCCC [undecane] + C1CC[C@H]2CCCC[C@H]2C1	0.801 ± 0.012

same assay, conditions: 318.15 K; 100 kPa; Liquid; Vibrating tube method; x2 = 0

Structure (SMILES)	mass density [kg/m3]
CCCCCCCCCC [decane] + C1CC[C@H]2CCCC[C@@H]2C1	712.2 ± 0.23
CCCCCCCCCC [decane] + C1CC[C@H]2CCCC[C@H]2C1	712.2 ± 0.23
CCCCCCCCC [nonane] + C1CC[C@H]2CCCC[C@@H]2C1	698.4 ± 0.25
CCCCCCCCC [nonane] + C1CC[C@H]2CCCC[C@H]2C1	698.4 ± 0.25
CCCCCCCCCCC [undecane] + C1CC[C@H]2CCCC[C@@H]2C1	721.78 ± 0.32
CCCCCCCCCCC [undecane] + C1CC[C@H]2CCCC[C@H]2C1	721.78 ± 0.32

same assay, conditions: 323.15 K; 100 kPa; Liquid; Capillary tube (Ostwald / Ubbelohde) method; x2 = 0

Structure (SMILES)	viscosity [mPa·s]
CCCCCCCCCC [decane] + C1CC[C@H]2CCCC[C@@H]2C1	0.632 ± 0.011
CCCCCCCCCC [decane] + C1CC[C@H]2CCCC[C@H]2C1	0.632 ± 0.011
CCCCCCCCC [nonane] + C1CC[C@H]2CCCC[C@@H]2C1	0.521 ± 0.011
CCCCCCCCC [nonane] + C1CC[C@H]2CCCC[C@H]2C1	0.521 ± 0.011
CCCCCCCCCCC [undecane] + C1CC[C@H]2CCCC[C@@H]2C1	0.749 ± 0.012
CCCCCCCCCCC [undecane] + C1CC[C@H]2CCCC[C@H]2C1	0.749 ± 0.012

same assay, conditions: 323.15 K; 100 kPa; Liquid; Vibrating tube method; x2 = 0

Structure (SMILES)	mass density [kg/m3]
CCCCCCCCCC [decane] + C1CC[C@H]2CCCC[C@@H]2C1	708.36 ± 0.23
CCCCCCCCCC [decane] + C1CC[C@H]2CCCC[C@H]2C1	708.36 ± 0.23
CCCCCCCCC [nonane] + C1CC[C@H]2CCCC[C@@H]2C1	694.43 ± 0.25
CCCCCCCCC [nonane] + C1CC[C@H]2CCCC[C@H]2C1	694.43 ± 0.25
CCCCCCCCCCC [undecane] + C1CC[C@H]2CCCC[C@@H]2C1	718.04 ± 0.31
CCCCCCCCCCC [undecane] + C1CC[C@H]2CCCC[C@H]2C1	718.04 ± 0.31

assay: not given; details: 293.15 K; 100 kPa; Liquid; Capillary tube (Ostwald / Ubbelohde) method

Structure (SMILES)	viscosity [mPa·s]
C1CC[C@H]2CCCC[C@H]2C1 [cis-decahydronaphthalene]	3.355 ± 0.033
CCCCCCCCCC [decane]	0.916 ± 0.012
CCCCCCCCC [nonane]	0.724 ± 0.011
C1CC[C@H]2CCCC[C@@H]2C1 [trans-decahydronaphthalene]	2.112 ± 0.015
CCCCCCCCCCC [undecane]	1.17 ± 0.014

same assay, conditions: 293.15 K; 100 kPa; Liquid; Vibrating tube method

Structure (SMILES)	mass density [kg/m3]
C1CC[C@H]2CCCC[C@H]2C1 [cis-decahydronaphthalene]	896.85 ± 0.48
CCCCCCCCCC [decane]	731.14 ± 0.23
CCCCCCCCC [nonane]	717.94 ± 0.24
C1CC[C@H]2CCCC[C@@H]2C1 [trans-decahydronaphthalene]	869.78 ± 0.13
CCCCCCCCCCC [undecane]	740.28 ± 0.32

same assay, conditions: 298.15 K; 100 kPa; Liquid; Capillary tube (Ostwald / Ubbelohde) method

Structure (SMILES)	viscosity [mPa·s]
C1CC[C@H]2CCCC[C@H]2C1 [cis-decahydronaphthalene]	3.011 ± 0.03
CCCCCCCCCC [decane]	0.852 ± 0.012
CCCCCCCCC [nonane]	0.681 ± 0.011
C1CC[C@H]2CCCC[C@@H]2C1 [trans-decahydronaphthalene]	1.925 ± 0.015
CCCCCCCCCCC [undecane]	1.086 ± 0.014

same assay, conditions: 298.15 K; 100 kPa; Liquid; Vibrating tube method

Structure (SMILES)	mass density [kg/m3]
C1CC[C@H]2CCCC[C@H]2C1 [cis-decahydronaphthalene]	893.06 ± 0.48
CCCCCCCCCC [decane]	727.43 ± 0.23
CCCCCCCCC [nonane]	714.11 ± 0.24
C1CC[C@H]2CCCC[C@@H]2C1 [trans-decahydronaphthalene]	866.07 ± 0.13
CCCCCCCCCCC [undecane]	736.63 ± 0.32

same assay, conditions: 303.15 K; 100 kPa; Liquid; Capillary tube (Ostwald / Ubbelohde) method

Structure (SMILES)	viscosity [mPa·s]
C1CC[C@H]2CCCC[C@H]2C1 [cis-decahydronaphthalene]	2.718 ± 0.028
CCCCCCCCCC [decane]	0.799 ± 0.012
CCCCCCCCC [nonane]	0.64 ± 0.011
